The record followed here is patent publication US8822168B2, “Assays for detecting small nuclear ribonucleoprotein particle assembly and survival of motor neurons activity” (The Trustees of the University of Pennsylvania, priority 2005, dated 2014).

Structures are written as SMILES. “Also recorded” adds a separate entry of the source.

For one assay, the system named is SMN complex. Kind of assay: high-throughput 384-well SMN complex activity / snRNP assembly assay. In kind it is biochemical. As to conditions: test compound added to labeled RNA, cell extract and ATP; identified inhibitors, FIG. 10.
In assay [1] the test system is Sm core assembly on U4 snRNA in HeLa cytoplasmic extracts. Briefly: magnetic beads assay for in vitro assembly of snRNPs (Sm core assembly). In kind it is biochemical. The following applies: cell extracts, AMP-PNP in place of ATP, FIG. 3A. How it is done: For quantitative in vitro assembly assays on magnetic beads, cytoplasmic extracts were prepared and used for assembly on biotin-labeled snRNAs using the standard reconstitution conditions in 96-well plates. Following the reactions, Y12 antibodies immobilized onto the magnetizable Dynabeads Protein A (Dynal Biotech ASA, Oslo, Norway) in 100 μl of RSB-500 buffer (10 mM Tris/HCl pH 7.5, 500 mM NaCl, 2.5 mM MgCl2) containing 2 mg/ml heparin, 0.1% NP-40, and 0.2 U/μl RNasin Plus RNase inhibitor (Promega, Madison, Wis.) were added to each well. Immunoprecipitations in the 96-well plates were carried out with gentle mixing at 750 rpm in a Thermomixer (Eppendorf, Germany) at 30° C. for 1 hour. The plates were subsequently transferred to a Kingfisher 96 magnetic particle processor (Thermo Labsystems, Vantaa, Finland) for automatic washing of the Dynabeads in each well with wash buffer (RSB-500, 0.1% NP-40) 5 times. […] The plates were transferred to a Wallac Victor2 multi-label plate reader (Perkin-Elmer, Wellesley, Mass.) for luminescence measurements at 495 nm. The resulting data were analyzed with Microsoft Excel.
To facilitate the study of the snRNP assembly process, an assay that allows a quantitative measurement of Sm core formation was developed (FIG. 2). […] This step also serves to amplify the signals for the luminescence measurement of the HRP activity on an automatic plate reader. […]

Source text for SMN complex: The present assay comprises labeling an RNA, in the case of an assay to measure Sm core activity, the RNA is snRNA. The RNA is preferably labeled with a non-radioactive tag, such as biotin-UTP. […] The labeled RNA binds the plate through the interaction between biotin and avidin/streptavidin. The RNA binding proteins present in the cell extract bind their RNA target at sequence specific sites, forming a ribonucleoprotein complex in the multi-well plate substrate. The ribonucleoprotein complex is captured on the plate and the plate is washed one or more times. An anti RNA binding protein antibody is then added to the plate. The plate is again washed one or more times and an labeled antibody, such as an HRP labeled antibody, is added to the multi-well plate substrate. The plate is washed one or more times, and HRP substrate is added. Chemiluminescence generated by HRP is detected using a plate reader.
Five microliters of test compound dissolved in DMSO were added to each well of the plate. Five microliters of HeLa whole cell extract containing 8 μg of total protein was added to each well. The plate was centrifuged (5 minutes at 1000 rpm), and the assembly reactions were allowed to proceed for 1 hour at room temperature. The reaction mixtures were aspirated and 20 μl/well of Y12 antibody (diluted 1:1000 in RSB-500 (10 mM Tris/HCl, pH 7.5, 500 mM NaCl, 2.5 mM MgCl2, and 0.1% Nonidet P-40 (NP-40)) containing 1 mg/ml BSA, 2 mg/ml heparin, and 1× Complete EDTA-free Protease Inhibitor Cocktail) was added. The plate was centrifuged for 5 minutes at 1000 rpm, and incubated for 1 hour at room temperature.
The plate was washed 10× with RSB-500 using an automated plate washer, followed by the addition of 20 ml/well of horseradish peroxidase-conjugated AffiniPure goat anti-mouse IgG+IgM (diluted 1:10,000 in RSB-500 containing 1 mg/ml BSA) for 1 hour at room temperature. The plate was centrifuged for 5 minutes at 1000 rpm. The plate was then washed 10× using an automated washer and 20 μl of SuperSignal ELISA Femto Maximum Sensitivity enhanced chemiluminescence substrate working solution was added into each well. The plate was then centrifuged for 5 minutes at 1000 rpm. The luminescence signal was measured using a plate Reader.
The assay of the present invention can also be used to determine the dose response activity of a compound on an RNA binding protein-RNA complex.

`O=C1C(SCCO)=C(SCCO)C(=O)c2ccccc21` [2,3-bis[(2-Hydroxyehtyl)thio]-1,4-naphthoquinone]: the “formation of an RNA binding protein-RNA complex” value in the assay with SMN complex is on record as “inhibits the formation of an RNA binding protein-RNA complex”.
`Nc1ncnc2c1ncn2[C@@H]1O[C@H](COP(=O)(O)OP(=O)(O)NP(=O)(O)O)[C@@H](O)[C@H]1O` [AMP-PNP, adenosine 5′-(β,γ-imido)triphosphate]: the “Sm core assembly (snRNP complex formation)” value in assay [1] is recorded as “does not permit the formation; also recorded: does not occur”.
For the molecule `CC1(C)CCC2=C(O1)c1ccccc1C(=O)C2=O` [beta-lapachone], the “formation of an RNA binding protein-RNA complex” value in the assay on SMN complex was “inhibits the formation of an RNA binding protein-RNA complex”.
The same measure, in the same setting: under `Oc1c(Cl)cc(Cl)cc1Sc1cc(Cl)cc(Cl)c1O` [bithionol] stands “inhibits the formation of an RNA binding protein-RNA complex”.
As to `Oc1c(Cl)cc(Cl)c(Cl)c1Cc1c(O)c(Cl)cc(Cl)c1Cl` [hexachlorophene], in the assay with SMN complex, the “formation of an RNA binding protein-RNA complex” value is recorded as “inhibits the formation of an RNA binding protein-RNA complex”.
